Like-named read-outs stand apart in the source and are kept apart here.
Columns and labels:
[1] = test system: mouse allogenic mixed lymphocyte reaction (BALB/c responder, C57BL/6 stimulator spleen cells); assay: mouse allogenic mixed lymphocyte reaction (MLR), blastogenesis by 3H-thymidine uptake; format: cell-based
Method: The immunosuppressive activity of the compounds (I) and their lactones was assayed by using mouse allogenic mixed lymphocyte reaction (hereinafter sometimes abbreviated as MLR). Mouse allogenic MLR was carried out by mixed culture of the BALB/c mouse (H-2^d) spleen cells as the responder cells and the mitomycin C-treated C57BL/6 (H-2^b) spleen cells as the stimulator cells in equal amounts.
The responder cells were prepared as follows: The spleen was resected from 5- to 6-week-old male BALB/c mice, and single cell suspension of spleen cells was prepared by using the RPMI1640 culture medium (containing 60 μg/ml of kanamycin sulfate, 2 mM of L-glutamine, 10 mM of N-2-hydroxyethylpiperazine-N'-2-ethanesulfonate (HEPES) and 0.1% sodium hydrogencarbonate) to which heat-inactivated fetal calf serum (hereinaftersometimes abbreviated as FCS) had been added to 5%. After hemolytic treatment, the cell suspension was adjusted to a concentration of 10^7 cells/ml by using the RPMI1640 culture medium supplemented with 10^-4 M 2-mercaptoethanol and 20% FCS, and was used as the responder cell suspension.
The stimulator cells were prepared as follows:
The spleen was resected from 5- to 6-week-old male C57BL/6 mice, and single cell suspension of spleen cells was prepared by using the RPMI1640 culture medium. After hemolytic treatment, the cells were treated with 40 μg/ml of mitomycin C at 37° C. for 60 minutes. After washing three times, the concentration of the cell suspension was adjusted to 10^7 cells/ ml by using the RPMI1640 culture medium supplemented with 10^-4 M 2-mercaptoethanol and 20% FCS, and was used as the stimulator cell suspension.
Fifty μl of the responder cell suspension, 50μl of the stimulator cell suspension prepared by the above method, and 100 μl of the test substance were placed in 96-well microculture plates, and were cultured at 37° C. in an atmosphere of 5% carbon dioxide for 4 days.
The blastogenesis of lymphocytes was assayed by a method of ^3 H-thymidine uptake as an index. That is, after termination of the culture, 0.5 μCi/well of ^3 H-thymidine was added and cultured for 4 hours. Cells were harvested by a cell-harvester, and the radioactivity incorporated into the cells was determined by a liquid scintillation counter to obtain the index of blastogenesis of lymphocytes in the mouse allogenic MLR. The suppression of the mouse allogenic MLR was evaluated by calculating the percent suppression by the following formula. [formula]
The test substance was dissolved in methanol or suspended in a mixture of methanol and acetic acid, and then diluted with the RPMI1640 culture medium.

[2] = cytotoxicity to mouse L929 cells; format: cell-based; conditions: mouse, l929 cells, read-out: Suppression
Method: (§1) Cytotoxicity to mouse L929 cells was assayed as follows:
(§2) L929 cells were suspended to the concentration of 1.5×10^5 cells/ml in the F12 culture medium supplemented with 10% FCS. One hundred μl of the suspension was added to each well of 96-well microculture plates, and cultured at 37° C. in an atmosphere of 5% carbon dioxide for 24 hours, to which 100 μl of the test solution was added and cultured for further 48 hours. After the culture, 100 μl of the supernatant was removed and the absorbancy at 550 nm was measured in the same way as the colormetry using MTT in Experimental Example 1. The percent suppression was calculated by the following formula used as the index of cytotoxicity. [formula]

mouse L929 cells = assay: cytotoxicity to mouse L929 cells; format: cell-based; conditions: 550 nm
Method: as §1, §2

in vitro = format: cell-based, human; conditions: human, read-out: Suppression
Method: (§3) Cytotoxicity to human tumor cell lines was examined as follows:
(§4) Cells of human cell lines, K562, MOLT4, U937, HL60, KATOIII, KB, PC-6, PC-14 and CCRF-CEM were separately suspended to the concentration of 2×10^5 cells/ml in the RPMI1640 culture medium supplemented with 20% FCS. Fifty μl of this suspension was added to each well of 96-well microculture plates to which 50 μl of the test solution had been added. After culturing at 37° C. in an atmosphere of 5% carbon dioxide for 72 hours, the absorbancy at 550 nm was measured in the same way as the colorimetry using MTT in Experimental Example 1, and the percent suppression was calculated in the same manner as in Experimental Example 14, which was used as the index of cytotoxicity.

CCRF-CEM = assay: in vitro; format: cell-based, human
Method: as §3, §4

HL60 = assay: in vitro; format: cell-based, human
Method: as §3, §4

K562 = assay: in vitro; format: cell-based, human
Method: as §3, §4

KB = assay: in vitro; format: cell-based, human
Method: as §3, §4

PC-14 = assay: in vitro; format: cell-based, human
Method: as §3, §4

U937 = assay: in vitro; format: cell-based, human
Method: as §3, §4

[3] = cytotoxicity to tumor cell line MOLT4; format: cell-based, human; conditions: human, molt4 cells, read-out: Suppression
Method: as §3, §4

MOLT4 = assay: cytotoxicity to tumor cell line MOLT4; format: cell-based, human
Method: as §3, §4

Question: For CCCCCCC(=O)CCCCCCCCCC1OC(=O)C(N)(CO)C1O (stereo not drawn) [Example 7], which 3H-thymidine uptake ([1]; 0.001 μg/ml) is on record?
Answer: The 3H-thymidine uptake was 24446 cpm.

Question: And the 3H-thymidine uptake ([1]; 0.01 μg/ml)?
Answer: Its 3H-thymidine uptake is 34378 cpm.

Question: What about the 3H-thymidine uptake ([1]; 0.1 μg/ml) of the same molecule?
Answer: The 3H-thymidine uptake was 3546 cpm.

Question: And the inhibition at 0.001 µg/mL ([1]; Mus musculus, Lymphocyte, 0.001 μg/ml, read-out: Suppression)?
Answer: Its inhibition at 0.001 µg/mL is 13.4%.

Question: What about the inhibition at 0.01 µg/mL ([1]; Mus musculus, Lymphocyte, 0.01 μg/ml, read-out: Suppression) of the same molecule?
Answer: Its inhibition at 0.01 µg/mL is 0%.

Question: And the inhibition at 0.1 µg/mL ([1]; Mus musculus, Lymphocyte, 0.1 μg/ml, read-out: Suppression)?
Answer: Its inhibition at 0.1 µg/mL is 100%.

Question: What about the cytotoxicity at 48 h ([2]; 0.1 μg/ml) of the same molecule?
Answer: The cytotoxicity at 48 h was 0%.

Question: What about the cytotoxicity at 48 h ([2]; 1 μg/ml) of the same molecule?
Answer: The cytotoxicity at 48 h was 0%.

Question: What about the cytotoxicity at 48 h ([2]; 10 μg/ml) of the same molecule?
Answer: Its cytotoxicity at 48 h is 0%.

Question: And the Absorbancy (mouse L929 cells; 0.1 μg/ml)?
Answer: Its Absorbancy is 0.799.

Question: And the Absorbancy (mouse L929 cells; 1 μg/ml)?
Answer: Its Absorbancy is 0.811.

Question: What about the Absorbancy (mouse L929 cells; 10 μg/ml) of the same molecule?
Answer: Its Absorbancy is 0.696.

Question: What about the cytotoxicity at 72 h (in vitro; ccrf-cem cells, 0.1 μg/ml) of the same molecule?
Answer: Its cytotoxicity at 72 h is 1.6%.

Question: And the cytotoxicity at 72 h (in vitro; ccrf-cem cells, 1.0 μg/ml)?
Answer: The cytotoxicity at 72 h was 5.6%.

Question: And the cytotoxicity at 72 h (in vitro; ccrf-cem cells, 10.0 μg/ml)?
Answer: The cytotoxicity at 72 h was 15.2%.

Question: What about the cytotoxicity at 72 h (in vitro; hl60 cells, 0.1 μg/ml) of the same molecule?
Answer: The cytotoxicity at 72 h was 17.2%.

Question: What about the cytotoxicity at 72 h (in vitro; hl60 cells, 1.0 μg/ml) of the same molecule?
Answer: The cytotoxicity at 72 h was 18.2%.

Question: And the cytotoxicity at 72 h (in vitro; hl60 cells, 10.0 μg/ml)?
Answer: Its cytotoxicity at 72 h is 18%.

Question: What about the cytotoxicity at 72 h (in vitro; k562 cells, 0.1 μg/ml) of the same molecule?
Answer: Its cytotoxicity at 72 h is 0%.

Question: And the cytotoxicity at 72 h (in vitro; k562 cells, 1.0 μg/ml)?
Answer: Its cytotoxicity at 72 h is 13.8%.

Question: What about the cytotoxicity at 72 h (in vitro; k562 cells, 10.0 μg/ml) of the same molecule?
Answer: Its cytotoxicity at 72 h is 21.6%.

Question: And the cytotoxicity at 72 h (in vitro; kb cells, 0.1 μg/ml)?
Answer: Its cytotoxicity at 72 h is 0.5%.

Question: And the cytotoxicity at 72 h (in vitro; kb cells, 1.0 μg/ml)?
Answer: Its cytotoxicity at 72 h is 4.8%.

Question: What about the cytotoxicity at 72 h (in vitro; kb cells, 10.0 μg/ml) of the same molecule?
Answer: The cytotoxicity at 72 h was 32.5%.

Question: And the cytotoxicity at 72 h (in vitro; pc-14 cells, 0.1 μg/ml)?
Answer: The cytotoxicity at 72 h was 5.9%.

Question: What about the cytotoxicity at 72 h (in vitro; pc-14 cells, 1.0 μg/ml) of the same molecule?
Answer: Its cytotoxicity at 72 h is 10.5%.

Question: And the cytotoxicity at 72 h (in vitro; pc-14 cells, 10.0 μg/ml)?
Answer: The cytotoxicity at 72 h was 33.5%.

Question: What about the cytotoxicity at 72 h (in vitro; u937 cells, 0.1 μg/ml) of the same molecule?
Answer: Its cytotoxicity at 72 h is 0%.

Question: And the cytotoxicity at 72 h (in vitro; u937 cells, 1.0 μg/ml)?
Answer: The cytotoxicity at 72 h was 0%.

Question: What about the cytotoxicity at 72 h (in vitro; u937 cells, 10.0 μg/ml) of the same molecule?
Answer: The cytotoxicity at 72 h was 5.5%.

Question: What about the Absorbancy (CCRF-CEM; 0.1 μg/ml) of the same molecule?
Answer: The Absorbancy was 0.681.

Question: What about the Absorbancy (CCRF-CEM; 1.0 μg/ml) of the same molecule?
Answer: The Absorbancy was 0.653.

Question: And the Absorbancy (CCRF-CEM; 10.0 μg/ml)?
Answer: Its Absorbancy is 0.587.

Question: And the Absorbancy (HL60; 0.1 μg/ml)?
Answer: Its Absorbancy is 0.432.

Question: What about the Absorbancy (HL60; 1.0 μg/ml) of the same molecule?
Answer: Its Absorbancy is 0.427.

Question: And the Absorbancy (HL60; 10.0 μg/ml)?
Answer: Its Absorbancy is 0.428.

Question: And the Absorbancy (K562; 0.1 μg/ml)?
Answer: The Absorbancy was 0.387.

Question: What about the Absorbancy (K562; 1.0 μg/ml) of the same molecule?
Answer: Its Absorbancy is 0.332.

Question: What about the Absorbancy (K562; 10.0 μg/ml) of the same molecule?
Answer: The Absorbancy was 0.302.

Question: What about the Absorbancy (KB; 0.1 μg/ml) of the same molecule?
Answer: The Absorbancy was 0.726.

Question: What about the Absorbancy (KB; 1.0 μg/ml) of the same molecule?
Answer: Its Absorbancy is 0.695.

Question: And the Absorbancy (KB; 10.0 μg/ml)?
Answer: Its Absorbancy is 0.493.

Question: What about the Absorbancy (PC-14; 0.1 μg/ml) of the same molecule?
Answer: Its Absorbancy is 0.446.

Question: What about the Absorbancy (PC-14; 1.0 μg/ml) of the same molecule?
Answer: Its Absorbancy is 0.424.

Question: What about the Absorbancy (PC-14; 10.0 μg/ml) of the same molecule?
Answer: Its Absorbancy is 0.315.

Question: What about the Absorbancy (U937; 0.1 μg/ml) of the same molecule?
Answer: Its Absorbancy is 0.588.

Question: What about the Absorbancy (U937; 1.0 μg/ml) of the same molecule?
Answer: Its Absorbancy is 0.593.

Question: What about the Absorbancy (U937; 10.0 μg/ml) of the same molecule?
Answer: Its Absorbancy is 0.551.

Question: What about the cytotoxicity at 72 h ([3]; 0.1 μg/ml) of the same molecule?
Answer: Its cytotoxicity at 72 h is 26.2%.

Question: What about the cytotoxicity at 72 h ([3]; 1.0 μg/ml) of the same molecule?
Answer: The cytotoxicity at 72 h was 15.2%.

Question: And the cytotoxicity at 72 h ([3]; 10.0 μg/ml)?
Answer: Its cytotoxicity at 72 h is 31%.

Question: And the Absorbancy (MOLT4; 0.1 μg/ml)?
Answer: The Absorbancy was 0.107.

Question: What about the Absorbancy (MOLT4; 1.0 μg/ml) of the same molecule?
Answer: Its Absorbancy is 0.123.

Question: And the Absorbancy (MOLT4; 10.0 μg/ml)?
Answer: Its Absorbancy is 0.100.
